Source: PubChem BioAssay (NCI)
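Dose response: 5 concentrations. Exposure: 48 h. Format: 96-well plates. Endpoint: linear interpolation; highest concentration if not reached. At the GI50, growth is halved. At the TGI there is no net growth.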

Tests used:
Test in all cases: growth of human tumour cells (NCI), 48 h; in the data active means GI50 below about 0.43 µM; inactive means the rest
NCI-H23 lung = system: NCI-H23 lung
COLO 205 colon = system: COLO 205 colon
SF-268 CNS = system: SF-268 CNS
SNB-75 CNS = system: SNB-75 CNS
LOX IMVI melanoma = system: LOX IMVI melanoma
HS 578T breast = system: HS 578T breast
HT29 colon = system: HT29 colon
CCRF-CEM leukemia = system: CCRF-CEM leukemia
KM12 colon = system: KM12 colon
DU-145 prostate = system: DU-145 prostate
A498 renal = system: A498 renal
MDA-MB-231 breast = system: MDA-MB-231 breast
UO-31 renal = system: UO-31 renal
SF-539 CNS = system: SF-539 CNS
SK-MEL-2 melanoma = system: SK-MEL-2 melanoma
NCI/ADR-RES ovarian = system: NCI/ADR-RES ovarian
A549 NSCLC = system: A549 NSCLC
EKVX NSCLC = system: EKVX NSCLC
SF-295 CNS = system: SF-295 CNS
RXF 393 renal = system: RXF 393 renal
SK-MEL-5 melanoma = system: SK-MEL-5 melanoma
SK-OV-3 ovarian = system: SK-OV-3 ovarian
SR leukemia = system: SR leukemia
SNB-19 CNS = system: SNB-19 CNS
PC-3 prostate = system: PC-3 prostate
HL-60(TB) leukemia = system: HL-60(TB) leukemia
SN12C renal = system: SN12C renal
SW-620 colon = system: SW-620 colon
T-47D breast = system: T-47D breast
MALME-3M melanoma = system: MALME-3M melanoma
OVCAR-4 ovarian = system: OVCAR-4 ovarian
MDA-MB-435 = system: MDA-MB-435
HCT-15 colon = system: HCT-15 colon
OVCAR-5 ovarian = system: OVCAR-5 ovarian
NCI-H226 lung = system: NCI-H226 lung
HCC-2998 colon = system: HCC-2998 colon
ACHN renal = system: ACHN renal
BT-549 breast = system: BT-549 breast
U251 CNS = system: U251 CNS
RPMI-8226 leukemia = system: RPMI-8226 leukemia
CAKI-1 renal = system: CAKI-1 renal
HOP-62 NSCLC = system: HOP-62 NSCLC
IGROV1 ovarian = system: IGROV1 ovarian
OVCAR-8 ovarian = system: OVCAR-8 ovarian
K-562 leukemia = system: K-562 leukemia
SK-MEL-28 melanoma = system: SK-MEL-28 melanoma
M14 melanoma = system: M14 melanoma
MOLT-4 leukemia = system: MOLT-4 leukemia
TK-10 renal = system: TK-10 renal
MCF7 breast = system: MCF7 breast
HCT-116 colon = system: HCT-116 colon
HOP-92 NSCLC = system: HOP-92 NSCLC
NCI-H460 lung = system: NCI-H460 lung
786-0 renal = system: 786-0 renal
UACC-257 melanoma = system: UACC-257 melanoma
NCI-H522 lung = system: NCI-H522 lung

COc1cccc2c1C=CC1(O2)Oc2cccc(OC)c2C=C1C (stereo unspecified)
48000 nM: TGI (MALME-3M melanoma)
5430 nM: TGI (A498 renal)
inactive: GI50 (NCI-H23 lung) 1370 nM | GI50 (SF-268 CNS) 1840 nM | GI50 (LOX IMVI melanoma) 515 nM | GI50 (HS 578T breast) 2100 nM | GI50 (KM12 colon) 544 nM | GI50 (DU-145 prostate) 727 nM | GI50 (A498 renal) 486 nM | GI50 (MDA-MB-231 breast) 596 nM | GI50 (UO-31 renal) 1270 nM | GI50 (SK-MEL-2 melanoma) 588 nM | GI50 (A549 NSCLC) 821 nM | GI50 (EKVX NSCLC) 2110 nM | GI50 (SK-MEL-5 melanoma) 521 nM | GI50 (SK-OV-3 ovarian) 700 nM | GI50 (SNB-19 CNS) 649 nM | GI50 (SN12C renal) 683 nM | GI50 (SW-620 colon) 434 nM | GI50 (T-47D breast) 858 nM | GI50 (MALME-3M melanoma) 899 nM | GI50 (OVCAR-4 ovarian) 6390 nM | GI50 (OVCAR-5 ovarian) 1300 nM | GI50 (NCI-H226 lung) 1750 nM | GI50 (HCC-2998 colon) 1430 nM | GI50 (ACHN renal) 699 nM | GI50 (BT-549 breast) 656 nM | GI50 (CAKI-1 renal) 461 nM | GI50 (HOP-62 NSCLC) 1490 nM | GI50 (IGROV1 ovarian) 794 nM | GI50 (OVCAR-8 ovarian) 1340 nM | GI50 (SK-MEL-28 melanoma) 2880 nM | GI50 (MOLT-4 leukemia) 430 nM | GI50 (TK-10 renal) 12200 nM | GI50 (786-0 renal) 563 nM | GI50 (UACC-257 melanoma) 1510 nM
3950 nM: TGI (LOX IMVI melanoma)
3320 nM: TGI (CCRF-CEM leukemia)
active: GI50 (COLO 205 colon) 243 nM | GI50 (SNB-75 CNS) 218 nM | GI50 (HT29 colon) 404 nM | GI50 (CCRF-CEM leukemia) 356 nM | GI50 (SF-539 CNS) 363 nM | GI50 (NCI/ADR-RES ovarian) 417 nM | GI50 (SF-295 CNS) 359 nM | GI50 (RXF 393 renal) 300 nM | GI50 (SR leukemia) 284 nM | GI50 (PC-3 prostate) 376 nM | GI50 (HL-60(TB) leukemia) 364 nM | GI50 (MDA-MB-435) 226 nM | GI50 (HCT-15 colon) 420 nM | GI50 (U251 CNS) 415 nM | GI50 (RPMI-8226 leukemia) 352 nM | GI50 (K-562 leukemia) 347 nM | GI50 (M14 melanoma) 345 nM | GI50 (MCF7 breast) 383 nM | GI50 (HCT-116 colon) 413 nM | GI50 (HOP-92 NSCLC) 316 nM | GI50 (NCI-H460 lung) 426 nM | GI50 (NCI-H522 lung) 290 nM
1510 nM: TGI (SNB-75 CNS)
4890 nM: TGI (M14 melanoma)
2350 nM: TGI (RPMI-8226 leukemia)
2060 nM: TGI (SR leukemia)
> 36400 nM: TGI (PC-3 prostate)
556 nM: TGI (MDA-MB-435)
6820 nM: TGI (OVCAR-8 ovarian)
11000 nM: TGI (SK-MEL-5 melanoma)
5520 nM: TGI (U251 CNS)
6390 nM: TGI (BT-549 breast)
10500 nM: TGI (HCT-116 colon)
1630 nM: TGI (RXF 393 renal)
> 60200 nM: TGI (MDA-MB-231 breast)
587 nM: TGI (COLO 205 colon)
> 100000 nM: TGI (NCI-H23 lung) | TGI (SF-268 CNS) | TGI (HS 578T breast) | TGI (KM12 colon) | TGI (DU-145 prostate) | TGI (UO-31 renal) | TGI (A549 NSCLC) | TGI (EKVX NSCLC) | TGI (SK-OV-3 ovarian) | TGI (SNB-19 CNS) | TGI (HL-60(TB) leukemia) | TGI (SN12C renal) | TGI (SW-620 colon) | TGI (T-47D breast) | TGI (OVCAR-4 ovarian) | TGI (OVCAR-5 ovarian) | TGI (NCI-H226 lung) | TGI (ACHN renal) | TGI (CAKI-1 renal) | TGI (HOP-62 NSCLC) | TGI (IGROV1 ovarian) | TGI (K-562 leukemia) | TGI (SK-MEL-28 melanoma) | TGI (TK-10 renal) | TGI (MCF7 breast) | TGI (UACC-257 melanoma)
> 81700 nM: TGI (NCI/ADR-RES ovarian)
> 43600 nM: TGI (HCT-15 colon)
> 44200 nM: TGI (SF-295 CNS)
2490 nM: TGI (NCI-H460 lung)
9320 nM: TGI (HCC-2998 colon)
1840 nM: TGI (SF-539 CNS)
